Test results: patent US7663000B2, “Quinoneimines of malonic acid diamides” (A-Viral ASA, priority 2003, dated 2010)

Test: Stability in aqueous solution, analysed by 1H NMR
Format: physicochemical
From the text: The product of Example 2 (PHBPQ, N-phenyl-2-hydroxy-2 butyl 1,3-propanal quinoneimine) was examined for stability in aqueous solution, followed by analysis by ^1H NMR spectroscopy.

N-phenyl-2-hydroxy-2 butyl 1,3-propanal quinoneimine [PHBPQ]
stability compared with 4-OH-OPB (pH 7.4): more stable at pH 7.4 than 4-OH-OPB | re-conversion into 4-OH-OPB (when the solution was acidified): not re-converted into 4-OH-OPB
